Experimental findings from PubChem BioAssay AID330 (DTP/NCI, 2004) are described below.

This experiment concerns P388 leukemia ip, CD2F1 mice, survival T/C. In words: NCI In Vivo Anticancer Drug Screen. Data for tumor model P388 Leukemia (intraperitoneal) in CD2F1 (CDF1) mice. To be noted: endpoint: median survival time, higher = longer survival. The method in brief: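 Mice carrying the transplanted tumor received test compound or vehicle. Survival was recorded in each group, and the value is the treated-group measurement divided by that of the vehicle-treated control group.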

The mark [1] stands for this setting: dose: 50.0 mg/kg/injection, schedule: Q01DX005 (ip), vehicle: saline with Tween-80.
Where [2] appears, read: dose: 100.0 mg/kg/injection, schedule: Q01DX005 (ip), vehicle: saline with Tween-80.
The mark [3] stands for this setting: dose: 200.0 mg/kg/injection, schedule: Q01DX005 (ip), vehicle: saline with Tween-80.
Where [4] appears, read: dose: 60.0 mg/kg/injection, schedule: Q01DX005 (ip), vehicle: Klucel (hydroxypropylcellulose) (HPC).
The mark [5] stands for this setting: dose: 120.0 mg/kg/injection, schedule: Q01DX005 (ip), vehicle: Klucel (hydroxypropylcellulose) (HPC).
Where [6] appears, read: dose: 240.0 mg/kg/injection, schedule: Q01DX005 (ip), vehicle: Klucel (hydroxypropylcellulose) (HPC).
The mark [7] stands for this setting: dose: 12.5 mg/kg/injection, schedule: Q01DX009 (ip), vehicle: other.
[8] abbreviates: dose: 100.0 mg/kg/injection, schedule: Q01DX001 (ip), vehicle: Klucel (hydroxypropylcellulose) (HPC).
[9] abbreviates: dose: 200.0 mg/kg/injection, schedule: Q01DX001 (ip), vehicle: Klucel (hydroxypropylcellulose) (HPC).
The mark [10] stands for this setting: dose: 400.0 mg/kg/injection, schedule: Q01DX001 (ip), vehicle: Klucel (hydroxypropylcellulose) (HPC).
[11] abbreviates: dose: 25.0 mg/kg/injection, schedule: Q01DX001 (ip), vehicle: saline with Tween-80.
Where [12] appears, read: dose: 50.0 mg/kg/injection, schedule: Q01DX001 (ip), vehicle: saline with Tween-80.
[13] abbreviates: dose: 100.0 mg/kg/injection, schedule: Q01DX001 (ip), vehicle: saline with Tween-80.
Setting [14] is: dose: 200.0 mg/kg/injection, schedule: Q01DX001 (ip), vehicle: saline with Tween-80.
[15] abbreviates: dose: 50.0 mg/kg/injection, schedule: Q01DX005 (ip), vehicle: Klucel (hydroxypropylcellulose) (HPC).
Setting [16] is: dose: 100.0 mg/kg/injection, schedule: Q01DX005 (ip), vehicle: Klucel (hydroxypropylcellulose) (HPC).
Where [17] appears, read: dose: 200.0 mg/kg/injection, schedule: Q01DX005 (ip), vehicle: Klucel (hydroxypropylcellulose) (HPC).

“And” between values parts separate entries of the source, which are not always exact repeats. Identical values can stand only once. Inconclusive results and toxic doses are left out.

As for `CCCCc1noc(N)c1SCC`, the T/C runs as follows: under setting [1], 105 % of control; under setting [2], 103 % of control; under setting [3], 107 % of control.
Regarding `CCN1/C(=C/C2=C([O-])C(=C\c3ccc4ccccc4[n+]3CC)/C2=O)C=Cc2ccccc21`, the T/C is 101 % of control under setting [4], 97 % of control under setting [5] and 86 % of control under setting [6].
In the case of `Cc1cc2c(cc1C)-c1nn(-c3ccccc3)c(-c3ccc(Cl)cc3)c1CCO2`, the T/C is, setting by setting: (dose: 12.5 mg/kg/injection, schedule: Q01DX005 (ip), vehicle: saline with Tween-80) 92 % of control; (dose: 25.0 mg/kg/injection, schedule: Q01DX005 (ip), vehicle: saline with Tween-80) 99 % of control; under setting [1], 93 % of control and 94 % of control.
With `COc1cc(Br)c(C(=O)N2CCc3ccccc32)cc1OC`, the T/C under setting [7] was 93 % of control and the T/C (dose: 25.0 mg/kg/injection, schedule: Q01DX009 (ip), vehicle: other) was 90 % of control.
For `N#Cc1ccc(NN=NCCCCCl)cc1`, the T/C runs as follows: (dose: 3.12 mg/kg/injection, schedule: Q01DX005 (ip), vehicle: distilled water + Tween-80) 94 % of control; (dose: 6.25 mg/kg/injection, schedule: Q01DX005 (ip), vehicle: distilled water + Tween-80) 88 % of control; (dose: 12.5 mg/kg/injection, schedule: Q01DX005 (ip), vehicle: distilled water + Tween-80) 91 % of control; (dose: 25.0 mg/kg/injection, schedule: Q01DX005 (ip), vehicle: distilled water + Tween-80) 94 % of control; (dose: 50.0 mg/kg/injection, schedule: Q01DX005 (ip), vehicle: distilled water + Tween-80) 105 % of control.
For `c1cncc(-c2n[nH]c3c2CCc2ccccc2-3)c1`, the T/C is 121 % of control under setting [7]; 86 % of control (dose: 37.5 mg/kg/injection, schedule: Q01DX009 (ip), vehicle: other); 121 % of control (dose: 50.0 mg/kg/injection, schedule: Q01DX009 (ip), vehicle: other); 113 % of control (dose: 75.0 mg/kg/injection, schedule: Q01DX009 (ip), vehicle: other); 111 % of control (dose: 100.0 mg/kg/injection, schedule: Q01DX009 (ip), vehicle: other); 100 % of control (dose: 150.0 mg/kg/injection, schedule: Q01DX009 (ip), vehicle: other). In addition, the T/C runs as follows: (dose: 200.0 mg/kg/injection, schedule: Q01DX009 (ip), vehicle: other) 101 % of control; (dose: 300.0 mg/kg/injection, schedule: Q01DX009 (ip), vehicle: other) 104 % of control.
As to `CCN1N=Nc2ccccc2NC1=O`, the T/C was 101 % of control under setting [1], 91 % of control under setting [2] and 96 % of control under setting [3].
Consider `O=C1c2c(O)ccc(O)c2C(=O)c2c(NCCCCCO)ccc(NCCCCCO)c21`, for which the T/C reads like this: (dose: 20.0 mg/kg/injection, schedule: Q01DX009 (ip), vehicle: Klucel (hydroxypropylcellulose) (HPC)) 94 % of control; (dose: 40.0 mg/kg/injection, schedule: Q01DX009 (ip), vehicle: Klucel (hydroxypropylcellulose) (HPC)) 89 % of control; (dose: 80.0 mg/kg/injection, schedule: Q01DX009 (ip), vehicle: Klucel (hydroxypropylcellulose) (HPC)) 93 % of control; (dose: 160.0 mg/kg/injection, schedule: Q01DX009 (ip), vehicle: Klucel (hydroxypropylcellulose) (HPC)) 93 % of control; (dose: 320.0 mg/kg/injection, schedule: Q01DX009 (ip), vehicle: Klucel (hydroxypropylcellulose) (HPC)) 111 % of control.
With `CCN(CC)c1c(C)c(-c2ccccc2)n[n+]([O-])c1-c1ccccc1`, the T/C by setting is: under setting [8], 104 % of control; under setting [9], 107 % of control; under setting [10], 104 % of control.
Turning to `COc1ccc(C(c2cc3c(cc2O)OCO3)N2CCN(C(c3ccc(OC)c(OC)c3)c3cc4c(cc3O)OCO4)CC2)cc1OC` (configuration not stated), the T/C under setting [4] was 89 % of control, the T/C under setting [5] is 90 % of control and the T/C under setting [6] was 105 % of control.
Regarding `c1ccc(N2CCCCCN2c2ccccc2)cc1`, the T/C by setting is: under setting [11], 100 % of control; under setting [12], 100 % of control; under setting [13], 100 % of control; under setting [14], 92 % of control.
With `O=C(Nc1ccc(C2=NCCN2)cc1)c1ccc(C(=O)Nc2ccc(C3=NCCN3)cc2)c(NC(=O)c2ccc(C(=O)Nc3cc(C(=O)Nc4ccc(C5=NCCN5)cc4)ccc3C(=O)Nc3ccc(C4=NCCN4)cc3)cc2)c1`, the T/C by setting is: (dose: 25.0 mg/kg/injection, schedule: Q01DX010 (ip), vehicle: saline) 90 % of control; (dose: 50.0 mg/kg/injection, schedule: Q01DX010 (ip), vehicle: saline) 86 % of control; (dose: 100.0 mg/kg/injection, schedule: Q01DX010 (ip), vehicle: saline) 100 % of control; (dose: 200.0 mg/kg/injection, schedule: Q01DX010 (ip), vehicle: saline) 100 % of control.
For `CC1(C)NN=C2C(=CC=C3NNC(C)(C)N32)n2cccc21`, the T/C runs as follows: under setting [1], 104 % of control; under setting [2], 106 % of control.
In the case of `Cc1ccc2c(=O)ccn(Cc3ccccc3)c2n1`, the T/C reads like this: (dose: 100.0 mg/kg/injection, schedule: Q01DX001 (ip), vehicle: saline) 101 % of control; (dose: 200.0 mg/kg/injection, schedule: Q01DX001 (ip), vehicle: saline) 103 % of control; (dose: 400.0 mg/kg/injection, schedule: Q01DX001 (ip), vehicle: saline) 92 % of control.
As to `Cc1ccc(S(=O)(=O)C(c2ccccc2)C(Br)C(=O)c2ccccc2)cc1` (configuration not stated), the T/C is 87 % of control (dose: 100.0 mg/kg/injection, schedule: Q04DX003 (ip), vehicle: saline) and 88 % of control (dose: 200.0 mg/kg/injection, schedule: Q04DX003 (ip), vehicle: saline).
As for `COC(=O)/C(=C(\C)C=O)N1C(=O)C(NC(=O)c2ccccc2)C1SSc1nc2ccccc2s1` (configuration not stated), the T/C was 108 % of control under setting [8], 95 % of control under setting [9] and 112 % of control under setting [10].
Consider `CCOC(=O)Nc1cc2c(c(N)n1)N=C(c1ccccc1)CN2C`, for which the T/C was 111 % of control (dose: 12.5 mg/kg/injection, schedule: Q01DX001 (ip), vehicle: saline with Tween-80); 101 % of control under setting [11]; 111 % of control and 97 % of control under setting [12]; 112 % of control under setting [13]; 106 % of control under setting [14].
As to `CCC1=CCCN(Cc2ccccc2)C1C#N` (configuration not stated), the T/C is 106 % of control (dose: 7.5 mg/kg/injection, schedule: Q01DX005 (ip), vehicle: Klucel (hydroxypropylcellulose) (HPC)); 111 % of control (dose: 15.0 mg/kg/injection, schedule: Q01DX005 (ip), vehicle: Klucel (hydroxypropylcellulose) (HPC)); 118 % of control (dose: 30.0 mg/kg/injection, schedule: Q01DX005 (ip), vehicle: Klucel (hydroxypropylcellulose) (HPC)).
Turning to `Cc1ccc(S(=O)(=O)NC(=O)NNC(=O)C(=O)Nc2ccc(F)cc2)cc1`, the T/C is 100 % of control under setting [15], 90 % of control under setting [16] and 90 % of control under setting [17].
Take `O=C(Nc1ccccn1)c1ccccc1S(=O)(=O)O`: the T/C under setting [1] was 102 % of control, the T/C under setting [2] was 104 % of control and the T/C under setting [3] was 99 % of control.
`COc1ccc2c(c1)C(=O)CC2`: the T/C is, setting by setting: under setting [15], 106 % of control; under setting [16], 101 % of control; under setting [17], 101 % of control.
With `CCC1(O)C(=O)OCc2c1cc1n(c2=O)Cc2cc3ccccc3nc2-1` (configuration not stated), the T/C was 150 % of control and 153 % of control (dose: 2.0 mg/kg/injection, schedule: Q04DX003 (ip), vehicle: other); 167 % of control and 178 % of control (dose: 4.0 mg/kg/injection, schedule: Q04DX003 (ip), vehicle: other); 222 % of control and 229 % of control (dose: 8.0 mg/kg/injection, schedule: Q04DX003 (ip), vehicle: other); 118 % of control (dose: 16.0 mg/kg/injection, schedule: Q04DX003 (ip), vehicle: other).
